# Laboratory results published in article PMC4549712, “Inhibition of human GLUT1 and GLUT5 by plant carbohydrate products; insights into transport specificity” (Scientific Reports, 2015).
# “Also recorded” adds a separate entry of the source.
# Legend:
# human GLUT5 = molecular target: T1, human GLUT5 (Homo sapiens, UniProt P22732); assay: entrance counter-flow transport assay, GLUT5-mediated fructose transport in proteoliposomes; type: biochemical; details: added at 20 mM
# T1 construct: Full length DNA was subcloned into pFastBac1 (Life Technologies) vector with a N-terminal hexahistidine tag; hexahistidine (thrombin-cleavable) (N, cleaved yes); made in house; host or cells: Sf21 insect cells (baculovirus, pFastBac1)
# T1 sequence (P22732 1-501): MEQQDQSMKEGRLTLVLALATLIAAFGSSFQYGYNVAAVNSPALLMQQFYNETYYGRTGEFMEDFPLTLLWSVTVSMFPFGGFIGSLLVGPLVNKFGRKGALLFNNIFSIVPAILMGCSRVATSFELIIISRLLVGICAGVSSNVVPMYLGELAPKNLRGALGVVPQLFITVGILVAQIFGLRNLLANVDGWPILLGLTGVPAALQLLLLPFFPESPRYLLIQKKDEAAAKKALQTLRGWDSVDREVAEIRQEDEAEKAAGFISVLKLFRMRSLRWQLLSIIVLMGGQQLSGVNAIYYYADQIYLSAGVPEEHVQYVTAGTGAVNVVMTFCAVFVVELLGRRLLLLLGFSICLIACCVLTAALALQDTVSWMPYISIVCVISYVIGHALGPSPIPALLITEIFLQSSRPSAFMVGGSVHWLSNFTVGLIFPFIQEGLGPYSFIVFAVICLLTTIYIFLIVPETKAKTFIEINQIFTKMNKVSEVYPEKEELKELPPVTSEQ
# Text: Human GLUT1 and GLUT5 were expressed recombinantly in insect cell culture. The purified proteins were reconstituted into proteoliposomes. To measure the inhibition of GLUT1 or GLUT5 transport activity we used entrance counter-flow transport assay.
# (§1) Proteoliposomes were generated according to the protocol from[30] with minor modifications. Liposomes were produced from a 95/5% (w/w) mix of soy phosphatidylcholine and cholesterol (Avanti Polar Lipids). Briefly, hexane-washed and vacuum-dried lipids were resuspended to 20 mg/ml in 100 mM KPi (pH 7.5), and then subjected to 11 freeze-and-thaw cycles in liquid nitrogen and room temperature water. The lipid mixture was extruded through a 0.1 μm polycarbonate filter. Prepared liposomes were destabilized with 4 mM Triton X-100 and mixed with purified protein in a 100:1 (w/w) ratio in 100 mM KPi (pH 7.5) 20% (v/v) glycerol, 200 mM (glucose or fructose). Detergent was removed by several additions of SM2 BioBeads (BioRad) and incubated overnight at 4 °C. After filtering out the BioBeads, proteoliposomes were diluted with 100 mM KPi (pH 7.5) 200 mM (glucose or fructose), and then collected by ultracentrifugation, at 200,000 × g and 4 °C, for 1 hour. The proteoliposomes pellet was resuspended in the above buffer so that O.D.600nm was ~30.
# To measure hexose transport, we utilized entrance counter-flow assay. Transport was performed in a volume of 100 μL of 100 mM KPi (pH 7.5) buffer containing radioactive ^14C-hexose (4 μM fructose or 5 μM glucose) with inhibitors added before initiation of transport. […] The reaction was started by the addition of 3 μL concentrated proteoliposomes to the above solution and incubated at room temperature; the transport was stopped after one minute by addition of ice-chilled quench buffer [100 mM KPi (pH 5.5) and 100 mM LiCl]. The solution was filtered through a 0.4 μm pore size cellulose nitrate membrane filter (Whatman), and the filter was washed three times with quench buffer. The membrane filter was placed into a vial filled with BioSafe II scintillation liquid (Research Products International Corp.), and radioactivity was quantified with LS 6500 scintillation counter (Beckman). […] Data is presented as relative activity normalized to radioactivity of no inhibitor added as 100% and empty proteoliposomes as 0%. Kinetic parameters were fitted by nonlinear algorithm plots using Prism (GraphPad Software).
# human GLUT1 = molecular target: T2, human GLUT1 (Homo sapiens, UniProt P11166); assay: entrance counter-flow transport assay, GLUT1-mediated glucose transport in proteoliposomes; type: biochemical; details: for inhibition of GLUT1 glucose transport activity: 20 mM
# T2 construct: Full length DNA was subcloned into pFastBac1 (Life Technologies) vector with a N-terminal hexahistidine tag; hexahistidine (thrombin-cleavable) (N, cleaved yes); made in house; host or cells: Sf21 insect cells (baculovirus, pFastBac1)
# T2 sequence (P11166 1-492): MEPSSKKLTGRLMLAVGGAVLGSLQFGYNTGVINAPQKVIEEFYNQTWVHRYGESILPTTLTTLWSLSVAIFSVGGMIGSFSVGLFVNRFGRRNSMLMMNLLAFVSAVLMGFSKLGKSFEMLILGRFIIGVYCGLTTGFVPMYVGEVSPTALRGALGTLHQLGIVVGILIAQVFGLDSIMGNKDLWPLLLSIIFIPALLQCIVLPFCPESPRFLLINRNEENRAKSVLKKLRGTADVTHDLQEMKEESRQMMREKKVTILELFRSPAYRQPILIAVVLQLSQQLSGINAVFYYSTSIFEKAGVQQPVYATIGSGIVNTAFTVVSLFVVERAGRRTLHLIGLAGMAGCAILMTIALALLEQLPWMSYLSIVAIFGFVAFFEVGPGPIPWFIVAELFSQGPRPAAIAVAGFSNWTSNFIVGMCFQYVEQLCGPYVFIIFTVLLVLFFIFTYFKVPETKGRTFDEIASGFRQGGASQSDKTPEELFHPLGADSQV
# Method: Human GLUT1 and GLUT5 were expressed recombinantly in insect cell culture. The purified proteins were reconstituted into proteoliposomes. To measure the inhibition of GLUT1 or GLUT5 transport activity we used entrance counter-flow transport assay. In GLUT1 and GLUT5 proteoliposomes, substrate transport reached steady state after one minute incubation at room temperature.
# as §1
# To measure hexose transport, we utilized entrance counter-flow assay. Transport was performed in a volume of 100 μL of 100 mM KPi (pH 7.5) buffer containing radioactive ^14C-hexose (4 μM fructose or 5 μM glucose) with inhibitors added before initiation of transport. Radioactive substrate uptake in GLUT1 and GLUT5 (wild-type or mutant) proteoliposomes was constant between 1 and 2 mins. The reaction was started by the addition of 3 μL concentrated proteoliposomes to the above solution and incubated at room temperature; the transport was stopped after one minute by addition of ice-chilled quench buffer [100 mM KPi (pH 5.5) and 100 mM LiCl]. The solution was filtered through a 0.4 μm pore size cellulose nitrate membrane filter (Whatman), and the filter was washed three times with quench buffer. The membrane filter was placed into a vial filled with BioSafe II scintillation liquid (Research Products International Corp.), and radioactivity was quantified with LS 6500 scintillation counter (Beckman). […] The transport assays were unaffected by 5% DMSO. Data is presented as relative activity normalized to radioactivity of no inhibitor added as 100% and empty proteoliposomes as 0%. Kinetic parameters were fitted by nonlinear algorithm plots using Prism (GraphPad Software).
# [1] = design: method as in PMID 22133440; details: cited from earlier work
# GLUT1 [2] = system: GLUT1; design: method as in PMID 9286080; details: cited from earlier work
# human GLUT2 = system: human GLUT2; design: method as in PMID 1716731; details: cited from earlier work
# human GLUT4 = system: human GLUT4; design: method as in PMID 1716731; details: cited from earlier work
# [3] = system: glucose/H+ symporter GlcPSe; design: method as in PMID 24127585; details: cited from earlier work
# GLUT5 [4] = system: GLUT5; design: method as in PMID 9166863; details: cited from earlier work
# GLUT5 [5] = system: GLUT5; design: method as in PMID 9166863; details: read-out: GLUT5 Km for fructose; cited from earlier work
# GLUT1 [6] = details: read-out: GLUT1 Km for glucose; cited from earlier work
# [7] = design: method as in PMID 22133440; details: cited from earlier work; remark: listed apart in the source
molecule,measurement,setting,value
OC[C@H]1O[C@H](O[C@H]2[C@H](O)[C@@H](O)C(O)O[C@@H]2CO)[C@H](O)[C@@H](O)[C@@H]1O (mixture of isomers) [maltose],inhibition of GLUT5 fructose transport activity,human GLUT5,neither maltose nor maltohexaose (6 glucose units) inhibited GLUT5
same,GLUT1 transport activity (relative glucose transport),human GLUT1; 20 mM compound,~ 80%
O=c1c(O[C@@H]2O[C@H](CO)[C@@H](O)[C@H](O)[C@H]2O)c(-c2ccc(O)cc2)oc2cc(O)cc(O)c12 [astragalin],inhibition of GLUT5 fructose transport activity,human GLUT5,neither maltohexaose nor astragalin alone inhibit GLUT5
same,solubility in water,[1],insoluble in water
C=C1[C@@H](C)[C@H]2[C@H](Cc3ccccc3)NC(=O)[C@]23OC(=O)/C=C/[C@H](O)CCC[C@@H](C)C/C=C/[C@H]3[C@@H]1O [cytochalasin B],inhibition of GLUT1 activity,GLUT1 [2],inhibitors
same,inhibition of human GLUT2,human GLUT2,inhibit
same,inhibition of human GLUT4,human GLUT4,inhibit
same,inhibition of bacterial glucose/H+ symporter GlcPSe,[3],inhibit
same,inhibition of GLUT5,GLUT5 [4],not GLUT5
C=C[C@@]1(C)CC(=O)[C@]2(O)[C@@]3(C)[C@@H](O)CCC(C)(C)[C@@H]3[C@H](O)[C@H](OC(C)=O)[C@@]2(C)O1 [forskolin],inhibition of GLUT1 activity,GLUT1 [2],inhibitors
same,inhibition of human GLUT2,human GLUT2,inhibit
same,inhibition of human GLUT4,human GLUT4,inhibit
same,inhibition of bacterial glucose/H+ symporter GlcPSe,[3],inhibit
same,inhibition of GLUT5,GLUT5 [4],not GLUT5
O=C(CO)[C@@H](O)[C@H](O)[C@H](O)CO [fructose],Km,GLUT5 [5],~10 mM
OC[C@H]1OC(O)[C@H](O)[C@@H](O)[C@@H]1O (some centres unmarked) [glucose],Km,GLUT1 [6],~3 mM
Astragalin-6-glucoside [Ast6G],inhibition of GLUT1 glucose transport activity,human GLUT1,not inhibited; also recorded: did not inhibit
same,redox scavenging properties compared to astragalin,[7],increased redox scavenging properties
maltohexaose,inhibition of GLUT5 fructose transport activity,human GLUT5,neither maltose nor maltohexaose (6 glucose units) inhibited GLUT5; also recorded: neither maltohexaose nor astragalin alone inhibit GLUT5
same,inhibition of GLUT1 glucose transport activity,human GLUT1,not inhibited
